IC50 and EC50 data for 21 compounds are collected here from patent US10316017B2, “COT modulators and methods of use thereof” (Gilead Sciences, Inc., priority 2015, dated 2019).

A word on the IC50: it is the concentration that gives 50% inhibition. By EC50 is commonly meant the concentration needed to bring the measured effect to its halfway point.

The target in assay [1] is T1, human Cot catalytic domain (30-397 amino acids) (Homo sapiens, UniProt P41279).
T1 construct: Purified recombinant human Cot catalytic domain (30-397 amino acids) was purchased from Cama Biosciences; purchased Cama Biosciences (so in the source)
T1 sequence (P41279 30-397): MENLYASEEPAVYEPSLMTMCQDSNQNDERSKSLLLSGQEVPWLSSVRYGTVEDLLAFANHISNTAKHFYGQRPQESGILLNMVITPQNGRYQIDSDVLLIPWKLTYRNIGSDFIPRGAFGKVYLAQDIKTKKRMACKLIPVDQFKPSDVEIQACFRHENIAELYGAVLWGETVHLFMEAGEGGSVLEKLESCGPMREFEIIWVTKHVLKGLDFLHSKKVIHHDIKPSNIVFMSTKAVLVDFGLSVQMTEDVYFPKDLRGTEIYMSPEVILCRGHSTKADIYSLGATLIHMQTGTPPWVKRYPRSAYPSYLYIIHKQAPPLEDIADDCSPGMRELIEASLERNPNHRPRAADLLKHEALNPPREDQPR
Description: High Throughput Cot Biochemical Assay (KinEASE TR-FRET). The note with it: read-out: IC50 HTRF. The gist of the method:
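Reaction of 5 nM recombinant human Cot catalytic domain (aa 30-397) with 1 μM STK3 peptide (XL665-labeled) and 400 μM ATP in 10 mM MOPS pH 7.0, 10 mM MgOAc, 1 mM DTT, 0.5 mg/mL BSA, 0.1% DMSO. Phosphopeptide detected by TR-FRET with europium anti-phospho antibody.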
In general terms: TR-FRET usually uses a lanthanide donor and a delayed reading to cut background.

Assay [2] deals with TNFα production in LPS-stimulated human monocytes. The assay can be described thus: Cot Monocyte TNFα Cell Based Assay. The note with it: read-out: EC50 TNF. The gist of the method:
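Cells at 5,000/well were pretreated with compound for 1 h at 37 °C (0.5% DMSO final), then stimulated with 50 pg/ml LPS for 4 h at 37 °C. Supernatant TNFα was measured by two-antibody TR-FRET after overnight room-temperature incubation; values are percent of control between unstimulated and stimulated wells.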

Where [3] appears, read: Cot biochemical HTRF (KinEASE TR-FRET) assay.
The mark [4] stands for this setting: Homo sapiens, Monocyte, TNFα in LPS-stimulated human monocytes.
Where [5] appears, read: Cot KinEASE TR-FRET (HTRF) biochemical assay, 400 μM ATP.
Setting [6] is: Cot KinEASE TR-FRET, 400 μM ATP.
[7] abbreviates: Homo sapiens, Monocyte, LPS-stimulated human monocytes, TNFα TR-FRET.

Where two headings read alike, the source gives them in different places.

For `N#Cc1cnc2c(Cl)cc(N[C@H](c3cn(C4COC4)nn3)c3ccc(F)cc3F)cc2c1Nc1cnc(F)c(F)c1` [Example 467, (S)-8-chloro-6-(((2,4-difluorophenyl)(1-(oxetan-3-yl)-1H-1,2,3-triazol-4-yl)methyl)amino)-4-((5,6-difluoropyridin-3-yl)amino)quinoline-3-carbonitrile], in assay [1] (setting [3]), the IC50 was 0.013 µM. Moreover, the concentration for a half-maximal effect (EC50) in assay [2] (setting [4]) came to 0.978 µM.

In the case of `[2H][C@@](Nc1cc(Cl)c2ncc(C#N)c(N[C@@H]3[C@@H]4CCC[C@@H]43)c2c1)(c1cn(C2CC2)nn1)c1ccccc1Cl` [Example 124, 4-(((1R,5S,6s)-bicyclo [3.1.0]hexan-6-yl)amino)-8-chloro-6-(((2-chlorophenyl)(1-cyclopropyl-1H-1,2,3-triazol-4-yl)methyl-d)amino) quinoline-3-carbonitrile], the concentration for half-maximal inhibition (IC50) in assay [1] (setting [5]) is 0.014 µM. Besides, the concentration giving a half-maximal response (EC50) in assay [2] (setting [4]) turned out to be 0.218 µM.

As to `N#Cc1cnc2c(Cl)cc(N[C@@H](c3ccc(F)cc3)c3c[nH]nn3)cc2c1Nc1cnc(F)c(Cl)c1` [Example 425, (S)-8-chloro-4-((5-chloro-6-fluoropyridin-3-yl)amino)-6-(((4-fluorophenyl)(1H-1,2,3-triazol-4-yl)methyl)amino)quinoline-3-carbonitrile], the IC50 in assay [1] (setting [3]) came out at 0.01 µM. The half-maximal effective concentration (EC50) in assay [2] (setting [4]) worked out at 0.438 µM.

Turning to `CNc1cccc([C@H](Nc2cc(Cl)c3ncc(C#N)c(Nc4ccc(F)c(Cl)c4)c3c2)c2cn(C3CCN(C(C)(C)C)CC3)nn2)c1` [Example 620, (S)-6-(((1-(1-(tert-butyl)piperidin-4-yl)-1H-1,2,3-triazol-4-yl)(3-(methylamino)phenyl)methyl)amino)-8-chloro-4-((3-chloro-4-fluorophenyl)amino)quinoline-3-carbonitrile], in assay [1] (setting [3]), the IC50 worked out at 0.006 µM. Further, in assay [2] (setting [4]), the 50% effective concentration (EC50) is 0.096 µM.

On to `CC(C)(C)N1CCC(n2cc([C@@H](Nc3cc(Cl)c4ncc(C#N)c(Nc5ccc(F)c(F)c5)c4c3)c3ccccc3)nn2)CC1` [Example 787, (S)-6-(((1-(1-(tert-butyl)piperidin-4-yl)-1H-1,2,3-triazol-4-yl)(phenyl)methyl)amino)-8-chloro-4-((3,4-difluorophenyl)amino)quinoline-3-carbonitrile], for which the IC50 in assay [1] (setting [3]) is 0.011 µM. The half-maximal effective concentration (EC50) in assay [2] (setting [4]) stood at 0.362 µM.

In the case of `[2H][C@@](Nc1cc(Cl)c2ncc(C#N)c(NCC(C)(C)C)c2c1)(c1cn(C2CC2)nn1)c1ccccc1Cl` [Example 343, (S)-8-chloro-6-(((2-chlorophenyl)(1-cyclopropyl-1H-1,2,3-triazol-4-yl)methyl-d)amino)-4-(neopentylamino) quinoline-3-carbonitrile], the half-maximal inhibitory concentration (IC50) in assay [1] (setting [5]) is 0.013 µM. Further, the EC50 in assay [2] (setting [4]) worked out at 0.151 µM.

For `N#Cc1cnc2c(Cl)cc(N[C@@H](c3ccc(F)cc3)c3cn(C4(C(F)(F)F)CC4)nn3)cc2c1Nc1cnc(F)c(F)c1` [Example 417, (S)-8-chloro-4-((5,6-difluoropyridin-3-yl)amino)-6-(((4-fluorophenyl)(1-(1-(trifluoromethyl)cyclopropyl)-1H-1,2,3-triazol-4-yl)methyl)amino)quinoline-3-carbonitrile], the IC50 in assay [1] (setting [3]) is 0.074 µM. The EC50 in assay [2] (setting [4]) stood at 1.93 µM.

Consider `CC(C)(C)CNc1c(C#N)cnc2c(Cl)cc(N[C@H](c3cn(C4CC4)nn3)c3ccc(F)cc3Cl)cc12` [Example 207, (S)-8-chloro-6-(((2-chloro-4-fluorophenyl) (1-cyclopropyl-1H-1,2,3-triazol-4-yl)methyl)amino)-4-(neopentylamino) quinoline-3-carbonitrile], for which, in assay [1] (setting [5]), the 50% inhibitory concentration (IC50) turned out to be 0.017 µM. The EC50 in assay [2] (setting [4]) is 0.305 µM.

Turning to `Cc1c([C@H](Nc2cc(Cl)c3ncc(C#N)c(NCC(C)(C)C)c3c2)c2cn(C3(C(F)(F)F)CC3)nn2)cccc1-n1cnnn1` [Example 1057, (S)-8-chloro-6-(((2-methyl-3-(1H-tetrazol-1-yl)phenyl)(1-(1-(trifluoromethyl)cyclopropyl)-1H-1,2,3-triazol-4-yl)methyl)amino)-4-(neopentylamino)quinoline-3-carbonitrile], in assay [1] (setting [6]), the half-maximal inhibitory concentration (IC50) came to 0.004 µM. The 50% effective concentration (EC50) in assay [2] (setting [7]) was found to be 0.073 µM.

With `N#Cc1cnc2c(Cl)cc(N[C@H](c3c[nH]nn3)c3ccc(F)cc3F)cc2c1Nc1cnc(F)c(F)c1` [Example 460, (S)-8-chloro-6-(((2,4-difluorophenyl)(1H-1,2,3-triazol-4-yl)methyl)amino)-4-((5,6-difluoropyridin-3-yl)amino)quinoline-3-carbonitrile], the half-maximal inhibitory concentration (IC50) in assay [1] (setting [3]) was determined as 0.023 µM. Also, the EC50 in assay [2] (setting [4]) came out at 1.26 µM.

On to `[2H][C@](Nc1cc(C#N)c2ncc(C#N)c(NCC(C)(C)C)c2c1)(c1ccc(F)cc1)c1cn(C2(CF)CC2)nn1` [Example 1006, (S)-6-(((1-(1-(fluoromethyl)cyclopropyl)-1H-1,2,3-triazol-4-yl)(4-fluorophenyl)methyl-d)amino)-4-(neopentylamino)quinoline-3,8-dicarbonitrile], for which the IC50 in assay [1] (setting [6]) stood at 0.009 µM. Besides, the EC50 in assay [2] (setting [7]) worked out at 0.072 µM.

Consider `[2H][C@](Nc1cc(-c2cncnc2)c2ncc(C#N)c(N[C@H](CCC(=O)O)c3ccccc3)c2c1)(c1ccc(F)cc1)c1cn(C2CC2)nn1` [Example 950, (R)-4-((3-cyano-6-(((S)-(1-cyclopropyl-1H-1,2,3-triazol-4-yl)(4-fluorophenyl)methyl-d)amino)-8-(pyrimidin-5-yl)quinolin-4-yl)amino)-4-phenylbutanoic acid], for which the IC50 in assay [1] (setting [6]) is no less than 10 µM. Further, the EC50 in assay [2] (setting [7]) was no less than 1 µM.

For the compound `N#CCn1cc([C@@H](Nc2cc(Cl)c3ncc(C#N)c(Nc4cnc(F)c(F)c4)c3c2)c2ccc(F)cc2)nn1` [Example 410, (S)-8-chloro-6-(((1-(cyanomethyl)-1H-1,2,3-triazol-4-yl)(4-fluorophenyl)methyl)amino)-4-((5,6-difluoropyridin-3-yl)amino)quinoline-3-carbonitrile], the IC50 in assay [1] (setting [3]) is 0.03 µM. In addition, the concentration for a half-maximal effect (EC50) in assay [2] (setting [4]) turned out to be 0.723 µM.

Take `[2H][C@](Nc1cc(Cl)c2ncc(C#N)c(N[C@@H](c3ccccc3)C3CC3)c2c1)(c1ccc(F)cc1)c1cn(C2CC2)nn1` [Example 185, 8-chloro-4-(((R)-cyclopropyl (phenyl)methyl)amino)-6-(((S)-(1-cyclopropyl-1H-1,2,3-triazol-4-yl)(4-fluorophenyl)methyl-d)amino)quinoline-3-carbonitrile]: the concentration for half-maximal inhibition (IC50) in assay [1] (setting [5]) is 0.011 µM. Also, the EC50 in assay [2] (setting [4]) turned out to be 0.199 µM.

As to “8-chloro-4-((4-cyna-1- phenylbutyl)amino)-6-(((1- cyclopropyl-1H-1,2,3-triazol-4- yl)(4-fluorophenyl)methyl- d)amino)quinoline-3-carbonitrile [Example 981]”, the IC50 in assay [1] (setting [6]) is 0.022 µM. In assay [2] (LPS-stimulated human monocytes, TNFα TR-FRET), the 50% effective concentration (EC50) came out at 0.318 µM.

For the compound `C[C@@H](Nc1c(C#N)cnc2c(Cl)cc(N[C@@H](c3ccccc3)c3cn(C4CCN(C(C)(C)C)CC4)nn3)cc12)C1CCOCC1` [Example 524, 6-(((S)-(1-(1-(tert-butyl)piperidin-4-yl)-1H-1,2,3-triazol-4-yl)(phenyl)methyl)amino)-8-chloro-4-(((R)-1-(tetrahydro-2H-pyran-4-yl)ethyl)amino) quinoline-3-carbonitrile], the concentration for half-maximal inhibition (IC50) in assay [1] (setting [3]) worked out at 0.787 µM. Besides, the concentration for a half-maximal effect (EC50) in assay [2] (setting [4]) was greater than 10 µM.

As for `CC(Nc1c(C#N)cnc2c(Cl)cc(N[C@@H](c3ccc(Cl)cc3)c3cn(C4CCN(C(C)(C)C)CC4)nn3)cc12)c1ccccn1` (stereo partly drawn) [Example 697, 6-(((S)-(1-(1-(tert-butyl)piperidin-4-yl)-1H-1,2,3-triazol-4-yl)(4-chlorophenyl)methyl)amino)-8-chloro-4-((1-(pyridin-2-yl)ethyl)amino)quinoline-3-carbonitrile], the IC50 in assay [1] (setting [3]) is greater than 10 µM. In addition, in assay [2] (setting [4]), the EC50 was found to be 17.1 µM.

Take `CC(=O)N(C)c1cccc([C@H](Nc2cc(Cl)c3ncc(C#N)c(Nc4ccc(F)c(Cl)c4)c3c2)c2cn(C3CCN(C(C)(C)C)CC3)nn2)c1` [Example 623, (S)-N-(3-((1-(1-(tert-butyl)piperidin-4-yl)-1H-1,2,3-triazol-4-yl)((8-chloro-4-((3-chloro-4-fluorophenyl)amino)-3-cyanoquinolin-6-yl)amino)methyl)phenyl)-N-methylacetamide]: the IC50 in assay [1] (setting [3]) amounted to 0.001 µM. In addition, the concentration giving a half-maximal response (EC50) in assay [2] (setting [4]) is 0.09 µM.

Turning to `[2H][C@@](Nc1cc(Cl)c2ncc(C#N)c(NCC(C)(C)C)c2c1)(c1cn(C2CC2)nn1)c1ccccc1C(F)F` [Example 238, (S)-8-chloro-6-(((1-cyclopropyl-1H-1,2,3-triazol-4-yl)(2-(difluoromethyl)phenyl)methyl-d)amino)-4-(neopentylamino)quinoline-3-carbonitrile], in assay [1] (setting [5]), the IC50 stood at 0.012 µM. The EC50 in assay [2] (setting [4]) is 0.162 µM.

With `C[C@@H](Nc1c(C#N)cnc2c(Cl)cc(N[C@@H](c3ccccc3)c3cn(C4CCN(C(C)(C)C)CC4)nn3)cc12)c1ccccc1F` [Example 619, 6-(((S)-(1-(1-(tert-butyl)piperidin-4-yl)-1H-1,2,3-triazol-4-yl)(phenyl)methyl)amino)-8-chloro-4-(((R)-1-(2-fluorophenyl)ethyl)amino) quinoline-3-carbonitrile], the IC50 in assay [1] (setting [3]) stood at 0.016 µM. In addition, the EC50 in assay [2] (setting [4]) turned out to be 0.826 µM.

As to `N#Cc1cnc2c(Cl)cc(N[C@@H](c3ccccc3)c3cn(C4CCNCC4)nn3)cc2c1Nc1ccc(F)c(Cl)c1` [Example 778, (S)-8-chloro-4-((3-chloro-4-fluorophenyl)amino)-6-((phenyl (1-(piperidin-4-yl)-1H-1,2,3-triazol-4-yl)methyl)amino) quinoline-3-carbonitrile], the IC50 in assay [1] (setting [3]) is 0.002 µM. Moreover, the EC50 in assay [2] (setting [4]) was found to be 0.305 µM.
